Laboratory results published in patent publication US6613747B2, “6-O-carbamoyl ketolide antibacterials” (Ortho-McNeil Pharmaceutical, Inc., priority 2000, dated 2003).
Converted amounts (≈) assume the structure as drawn.

What was measured:
Assay in all cases: MIC, microdilution broth method (NCCLS)
Assay type in all cases: cell-based
E. coli OC2605 = conditions: A: E. coli OC2605, 35° C., 16-20 hours
Experimental: (§1) Minimal inhibitory concentration (MIC) has been an indicator of in vitro antibacterial activity widely used in the art. The in vitro antimicrobial activity of the compounds was determined by the microdilution broth method following the test method from the National Committee for Clinical Laboratory Standards (NCCLS). This method is described in the NCCLS Document M7-A4, Vol. 17, No. 2, “Methods for Dilution Antimicrobial Susceptibility Test for Bacteria that Grow Aerobically—Fourth Edition”, which is incorporated herein by reference.
(§2) In this method two-fold serial dilutions of drug in cation adjusted Mueller-Hinton broth are added to wells in microdilution trays. The test organisms are prepared by adjusting the turbidity of actively growing broth cultures so that the final concentration of test organism after it is added to the wells is approximately 5×10^4 CFU/well.
(§3) Following inoculation of the microdilution trays, the trays are incubated at 35° C. for 16-20 hours and then read. […] The amount of growth in the wells containing the test compound is compared with the amount of growth in the growth-control wells (no test compound) used in each tray. As set forth in Table 1, compounds of the present invention were tested against a variety of Gram positive and Gram negative pathogenic bacteria resulting in a range of activities depending on the organism tested.

E. faecalis ATCC29212 = conditions: C: E. faecalis ATCC29212, 35° C., 16-20 hours
Experimental: as §1, §2, §3

H. influenzae ATCC49247 = conditions: E: H. influenzae ATCC49247, 35° C., 16-20 hours
Experimental: as §1, §2, §3

S. aureus ATCC29213 = conditions: B: S. aureus ATCC29213, 35° C., 16-20 hours
Experimental: as §1, §2, §3

S. pneumoniae ATCC49619 = conditions: D: S. pneumoniae ATCC49619, 35° C., 16-20 hours
Experimental: as §1, §2, §3

Compound | MIC (E. coli OC2605) | MIC (E. faecalis ATCC29212) | MIC (H. influenzae ATCC49247) | MIC (S. aureus ATCC29213) | MIC (S. pneumoniae ATCC49619)
CC[C@H]1OC(=O)[C@H](C)C(=O)[C@H](C)[C@@H](O[C@@H]2O[C@H](C)C[C@H](N(C)C)[C@H]2O)[C@](C)(OC(=O)NCc2ccc(-n3ccnc3)cc2)C[C@@H](C)C(=O)[C@H](C)[C@H]2NC(=O)O[C@@]21C [Compound 8] | 16 µg/mL (≈ 20.1 µM) | 0.12 µg/mL (≈ 0.15 µM) | 4 µg/mL (≈ 5.01 µM) | 1 µg/mL (≈ 1.25 µM) | 0.03 µg/mL (≈ 0.0376 µM)
CC[C@H]1OC(=O)[C@H](C)C(=O)[C@H](C)[C@@H](O[C@@H]2O[C@H](C)C[C@H](N(C)C)[C@H]2O)[C@](C)(OC(=O)NCCCCc2ccccc2)C[C@@H](C)C(=O)[C@H](C)[C@H]2NC(=O)O[C@@]21C [Compound 9] | >16 µg/mL | 0.25 µg/mL (≈ 0.323 µM) | 16 µg/mL (≈ 20.7 µM) | 1 µg/mL (≈ 1.29 µM) | 0.03 µg/mL (≈ 0.0388 µM)
CC[C@H]1OC(=O)[C@H](C)C(=O)[C@H](C)[C@@H](O[C@@H]2O[C@H](C)C[C@H](N(C)C)[C@H]2O)[C@](C)(OC(=O)NCc2ccc(-n3cncn3)cc2)C[C@@H](C)C(=O)[C@H](C)[C@H]2NC(=O)O[C@@]21C [Compound 10] | 16 µg/mL (≈ 20 µM) | 0.25 µg/mL (≈ 0.313 µM) | 4 µg/mL (≈ 5.01 µM) | 1 µg/mL (≈ 1.25 µM) | 0.03 µg/mL (≈ 0.0375 µM)
CC[C@H]1OC(=O)[C@H](C)C(=O)[C@H](C)[C@@H](O[C@@H]2O[C@H](C)C[C@H](N(C)C)[C@H]2O)[C@](C)(OC(=O)N(CC#Cc2ccccc2)CC#Cc2ccccc2)C[C@@H](C)C(=O)[C@H](C)[C@H]2NC(=O)O[C@@]21C [Compound 11] | >16 µg/mL | 2 µg/mL (≈ 2.3 µM) | >16 µg/mL | 4 µg/mL (≈ 4.6 µM) | 0.5 µg/mL (≈ 0.575 µM)
CC[C@H]1OC(=O)[C@H](C)C(=O)[C@H](C)[C@@H](O[C@@H]2O[C@H](C)C[C@H](N(C)C)[C@H]2O)[C@](C)(OC(=O)NCCCc2cccnc2)C[C@@H](C)C(=O)[C@H](C)[C@H]2NC(=O)O[C@@]21C [Compound 12] | 16 µg/mL (≈ 21 µM) | 0.12 µg/mL (≈ 0.158 µM) | 4 µg/mL (≈ 5.26 µM) | 1 µg/mL (≈ 1.31 µM) | 0.06 µg/mL (≈ 0.0789 µM)
CC[C@H]1OC(=O)[C@H](C)C(=O)[C@H](C)[C@@H](O[C@@H]2O[C@H](C)C[C@H](N(C)C)[C@H]2O)[C@](C)(OC(=O)NCC#Cc2ccccc2)C[C@@H](C)C(=O)[C@H](C)[C@H]2NC(=O)O[C@@]21C [Compound 13] | >16 µg/mL | 0.25 µg/mL (≈ 0.331 µM) | 8 µg/mL (≈ 10.6 µM) | 1 µg/mL (≈ 1.32 µM) | 0.06 µg/mL (≈ 0.0794 µM)
CC[C@H]1OC(=O)[C@H](C)C(=O)[C@H](C)[C@@H](O[C@@H]2O[C@H](C)C[C@H](N(C)C)[C@H]2O)[C@](C)(OC(=O)NCCCc2ccc(N(C)C)cc2)C[C@@H](C)C(=O)[C@H](C)[C@H]2NC(=O)O[C@@]21C [Compound 14] | >16 µg/mL | 0.5 µg/mL (≈ 0.623 µM) | >16 µg/mL | 8 µg/mL (≈ 9.96 µM) | 0.12 µg/mL (≈ 0.149 µM)
CC[C@H]1OC(=O)[C@H](C)C(=O)[C@H](C)[C@@H](O[C@@H]2O[C@H](C)C[C@H](N(C)C)[C@H]2O)[C@](C)(OC(=O)NC/C=C/c2ccc([N+](=O)[O-])cc2)C[C@@H](C)C(=O)[C@H](C)[C@H]2NC(=O)O[C@@]21C [Compound 15] | 4 µg/mL (≈ 4.98 µM) | 0.06 µg/mL (≈ 0.0747 µM) | 2 µg/mL (≈ 2.49 µM) | 0.12 µg/mL (≈ 0.149 µM) | 0.03 µg/mL (≈ 0.0374 µM)
CC[C@H]1OC(=O)[C@H](C)C(=O)[C@H](C)[C@@H](O[C@@H]2O[C@H](C)C[C@H](N(C)C)[C@H]2O)[C@](C)(OC(=O)NC/C=C/c2ccc(Br)cc2)C[C@@H](C)C(=O)[C@H](C)[C@H]2NC(=O)O[C@@]21C [Compound 16] | 8 µg/mL (≈ 9.56 µM) | 0.12 µg/mL (≈ 0.143 µM) | 4 µg/mL (≈ 4.78 µM) | 0.5 µg/mL (≈ 0.598 µM) | 0.03 µg/mL (≈ 0.0359 µM)
CC[C@H]1OC(=O)[C@H](C)C(=O)[C@H](C)[C@@H](O[C@@H]2O[C@H](C)C[C@H](N(C)C)[C@H]2O)[C@](C)(OC(=O)NC/C=C/c2ccc(-n3cccn3)cc2)C[C@@H](C)C(=O)[C@H](C)[C@H]2NC(=O)O[C@@]21C [Compound 18] | 16 µg/mL (≈ 19.4 µM) | 0.06 µg/mL (≈ 0.0728 µM) | 4 µg/mL (≈ 4.85 µM) | 0.25 µg/mL (≈ 0.303 µM) | 0.03 µg/mL (≈ 0.0364 µM)
CC[C@H]1OC(=O)[C@H](C)C(=O)[C@H](C)[C@@H](O[C@@H]2O[C@H](C)C[C@H](N(C)C)[C@H]2O)[C@](C)(OC(=O)NC/C=C/c2ccc(-c3ccccn3)cc2)C[C@@H](C)C(=O)[C@H](C)[C@H]2NC(=O)O[C@@]21C [Compound 19] | 16 µg/mL (≈ 19.2 µM) | 0.12 µg/mL (≈ 0.144 µM) | 4 µg/mL (≈ 4.79 µM) | 0.12 µg/mL (≈ 0.144 µM) | 0.03 µg/mL (≈ 0.0359 µM)
CC[C@H]1OC(=O)[C@H](C)C(=O)[C@H](C)[C@@H](O[C@@H]2O[C@H](C)C[C@H](N(C)C)[C@H]2O)[C@](C)(OC(=O)NC/C=C/c2ccc(-n3cncn3)cc2)C[C@@H](C)C(=O)[C@H](C)[C@H]2NC(=O)O[C@@]21C [Compound 20] | 16 µg/mL (≈ 19.4 µM) | 0.06 µg/mL (≈ 0.0727 µM) | 4 µg/mL (≈ 4.85 µM) | 0.12 µg/mL (≈ 0.145 µM) | 0.03 µg/mL (≈ 0.0364 µM)
CC[C@H]1OC(=O)[C@H](C)C(=O)[C@H](C)[C@@H](O[C@@H]2O[C@H](C)C[C@H](N(C)C)[C@H]2O)[C@](C)(OC(=O)NC/C(C)=C/c2ccccc2)C[C@@H](C)C(=O)[C@H](C)[C@H]2NC(=O)O[C@@]21C [Compound 21] | >16 µg/mL | 0.25 µg/mL (≈ 0.324 µM) | 4 µg/mL (≈ 5.18 µM) | 0.5 µg/mL (≈ 0.648 µM) | 0.06 µg/mL (≈ 0.0777 µM)
CC[C@H]1OC(=O)[C@H](C)C(=O)[C@H](C)[C@@H](O[C@@H]2O[C@H](C)C[C@H](N(C)C)[C@H]2O)[C@](C)(OC(=O)NC/C=C/c2ccc(-n3ccnc3)cc2)C[C@@H](C)C(=O)[C@H](C)[C@H]2NC(=O)O[C@@]21C [Compound 22] | 8 µg/mL (≈ 9.71 µM) | 0.06 µg/mL (≈ 0.0728 µM) | 2 µg/mL (≈ 2.43 µM) | 0.25 µg/mL (≈ 0.303 µM) | 0.03 µg/mL (≈ 0.0364 µM)
CC[C@H]1OC(=O)[C@H](C)C(=O)[C@H](C)[C@@H](O[C@@H]2O[C@H](C)C[C@H](N(C)C)[C@H]2O)[C@](C)(OC(=O)NC/C=C/c2ccc(-c3cccnc3)cc2)C[C@@H](C)C(=O)[C@H](C)[C@H]2NC(=O)O[C@@]21C [Compound 23] | 16 µg/mL (≈ 19.2 µM) | 0.12 µg/mL (≈ 0.144 µM) | 2 µg/mL (≈ 2.4 µM) | 0.25 µg/mL (≈ 0.299 µM) | 0.06 µg/mL (≈ 0.0719 µM)
CC[C@H]1OC(=O)[C@H](C)C(=O)[C@H](C)[C@@H](O[C@@H]2O[C@H](C)C[C@H](N(C)C)[C@H]2O)[C@](C)(OC(=O)NCCCc2ccncc2)C[C@@H](C)C(=O)[C@H](C)[C@H]2NC(=O)O[C@@]21C [Compound 24] | 16 µg/mL (≈ 21 µM) | 0.12 µg/mL (≈ 0.158 µM) | 2 µg/mL (≈ 2.63 µM) | 1 µg/mL (≈ 1.31 µM) | 0.06 µg/mL (≈ 0.0789 µM)
CC[C@H]1OC(=O)[C@H](C)C(=O)[C@H](C)[C@@H](O[C@@H]2O[C@H](C)C[C@H](N(C)C)[C@H]2O)[C@](C)(OC(=O)NCCCc2ccnc3ccccc23)C[C@@H](C)C(=O)[C@H](C)[C@H]2NC(=O)O[C@@]21C [Compound 25] | 8 µg/mL (≈ 9.86 µM) | 0.06 µg/mL (≈ 0.074 µM) | 4 µg/mL (≈ 4.93 µM) | 0.25 µg/mL (≈ 0.308 µM) | 0.03 µg/mL (≈ 0.037 µM)
